The text below walks through data of patent US10881709B2, “Immune system modulators and compositions” (Canimguide Therapeutics AB, priority 2015, dated 2021).

A short description of data set [1]: Toxicological aspects of P28R in dogs (systemic side effects). Format: in vivo, dog. As to conditions: 21 dogs: 4 with 200 nM in 1 mL subcutaneously, 17 with 40 nM in 200 microliters intra-tumourally. How it is done:
Twenty-one dogs have been treated with P28R, 4 in the toxicological study (CiToxLab®, Denmark) with 200 nM administered in 1 mL subcutaneously and 17 dogs in the treatment study reported here with 40 nM in 200 microliters intra-tumourally.

Data set [2] is described as follows: Toxicological study and observation of side effects in dogs. Format: in vivo, dog. The following applies: 200 nM in 1 mL subcutaneously and 40 nM in 200 microliters intra-tumourally. On the procedure: So far nine dogs have been treated with P28R in accordance with some embodiments herein, 4 in the toxicological study (CiToxLab, Denmark) with 200 nM administered in 1 mL subcutaneously and 5 dogs in the treatment study reported here with 40 nM in 200 microliters intra tumourally.
More than 20 dogs have been treated with P28R, including 4 in the toxicological study (CiToxLab®, Denmark) with 200 nM administered in 1 mL subcutaneously and 17 dogs in the treatment study reported here with 40 nM in 200 microliters intra-tumourally.

The subject of data set [3] is spontaneous canine tumours. Kind of data set: Intra-tumoral treatment of spontaneous tumours in dogs. Format: in vivo. The following applies: single dog. On the procedure: Seventeen spontaneous canine tumours, of variable histology have been treated by intra-tumoral injection of 40 nmol P28R in 200 microliters. The tumours were resected 3-5 days later, immediately snap frozen and stored at −80° C. until further processed. A detailed description of treatment of the tumors is provided below (see Examples 50-60). In these examples, 15 control dogs with untreated tumours (5 snap frozen and 10 FFPE) were also examined.
A summary is provided for 7 dogs with treated mammary tumours and 5 untreated control dogs (see FIG. 88). Tumour cells (881 for treated dogs, 882 for untreated control dogs) and lymphocytes (883 for both treated dogs and untreated control dogs) were counted at 400× magnification. The ratio between these cells was used as a measure on the inflammatory infiltrate (FIG. 88). The reproducibility and the influence of tumour heterogeneity on cell counts were evaluated by counting several areas from each tumour section.
The therapeutic efficacy was evaluated as the presence of an inflammatory infiltrate and the occurrence of tumour cell regressive changes. As migration of effector cells close to tumour cells is one important, but often inhibited function of these cells, the effect of P28R was specifically evaluated as the presence of inflammatory cells infiltrating into the tumour cell areas close to the tumour cells. […]

Peptide text beside a SMILES is read from it.

With `CC(C)C[C@H](NC(=O)[C@H](CO)NC(=O)[C@H](CC(C)C)NC(=O)[C@H](CCCCN)NC(=O)[C@@H](NC(=O)[C@H](Cc1ccccc1)NC(=O)[C@H](Cc1ccccc1)NC(=O)[C@@H](NC(=O)[C@H](CC(=O)O)NC(=O)[C@H](CC(C)C)NC(=O)[C@H](CCCCN)NC(=O)[C@@H](N)CCCCN)[C@@H](C)O)C(C)C)C(=O)N[C@@H](Cc1ccccc1)C(=O)N[C@H](C(=O)N[C@@H](CCC(=O)O)C(=O)N[C@@H](CCCNC(=N)N)C(=O)O)[C@@H](C)O` [P28R] (H-KKLDTFFVKLSLFTER-OH; N-terminus and C-terminus assumed), the systemic side effects result in data set [1] and in data set [2] was “None of these dogs showed any systemic side effects” in each case. The “clinical observations after injection until resection” value in data set [3] is “No systemic adverse events were observed”.
